In US7745473B2, “Indole derivative for alkylating specific base sequence of DNA and alkylating agent and drug containing the derivative” (Kyoto University, priority 2004, dated 2010):
“Also recorded” adds a separate entry of the source.

Key:
[1] = test system: DNA fragment (SEQ ID NO:11) derived from pQBI63; test: DNA alkylation of 5′-Texas Red-labeled DNA fragment (994 bp); type: biochemical; conditions: FIG. 5
Method: A 5′-Texas Red-labeled DNA fragment (994 bp) (pQBI63; SEQ ID NO:11) was prepared by a PCR method using a 20-base-pair primer, i.e., 5′-[…]-3′ (SEQ ID NO:12), and a 5′-Texas Red-labeled 20-base-pair primer, i.e., 5′-TexRed-[…]-3′ (SEQ ID NO:13), pQBI63 plasmid being used as a template.
(§1) Analysis by polyacrylamide gel electrophoresis was performed by the following process: A standard reaction solution containing the 5′-Texas Red-end-labeled DNA fragment (10 nM), DMF (10% (v/v)), and an agent having a concentration described above in a sodium phosphate buffer (5 mM, total volume: 10 μL, pH=7.0) was charged into a microfuge tube (Eppendorf) and left standing at 23° C. for 8 hours. After completion of the reaction, the reaction was quenched by the addition of calf thymus DNA (1 mM, 1 μL). The resulting mixture was shaken at 90° C. for 5 minutes. The DNA obtained by centrifugation under reduced pressure was dissolved by the addition of 8 μl, of loading dye (fushin red solution in DMF), shaken at 94° C. for 20 minutes, and then immediately cooled to 0° C. A 2-μL aliquot was separated electrophoretically on a 6% denaturing polyacrylamide gel using a Hitachi 5500-S DNA sequencer. The following tests were conducted in a similar way. […]

[2] = test system: 727-bp DNA fragment (SEQ ID NO:14); test: Sequence-specific alkylation of DNA by polyamide heterodimer; type: biochemical; conditions: 727-bp fragment, FIG. 7
Method: A 5′-Texas Red-labeled 727-bp DNA fragment (SEQ ID NO:14) was prepared by a PCR method using a 5′-Texas Red-labeled 20-base-pair primer, i.e., 5′-TexRed-[…]-3′ (SEQ ID NO:15), and a 21-base-pair primer, i.e., 5′-[…]-3′ (SEQ ID NO:16), a plasmid containing MLP into which the code base sequence of human β-globin was integrated being used as a template.
as §1

[3] = test system: DNA fragment (446 bp; SEQ ID NO:17) containing 24 repeats of a telomeric sequence; test: DNA alkylation targeting telomeric sequence; type: biochemical; conditions: 446 bp fragment, nanomolar concentrations, FIG. 8
Method: A 5′-Texas Red-labeled 446-bp DNA fragment (SEQ ID NO:17 with a 24-times-repeated telomere sequence was prepared by a PCR method using a 5′-Texas Red-labeled 20-base pair primer, i.e., 5′-TexRed-[…]-3′ (SEQ ID NO:18), and a 20-base-pair primer, i.e., 5′-[…]-3′ (SEQ ID NO:19), pCR2.1 plasmid into which an oligomer having a repetitive telomere sequence was integrated from the cleavage site by EcoRI being used as a template. The resulting each DNA fragment was purified by filtration using Suprec-02. The concentration of each resulting product was determined by measuring UV absorption.
as §1, with “C.” for “C. A 2-μL aliquot was separated electrophoretically on a 6% denaturing polyacrylamide gel using a Hitachi 5500-S DNA sequencer. The following tests were conducted in a similar way.”

[4] = test system: long-chain DNA (pUC-II; SEQ ID NO:4, pUC-I′; SEQ ID NO:1); test: DNA alkylation of 5′-Texas Red-labeled long-chain DNA, analysed by polyacrylamide gel electrophoresis; type: biochemical; conditions: 8 hours, pUC-II and pUC-I′, FIG. 2
Method: A 5′-Texas Red-labeled DNA fragment (450 bp) (pUC-I′, SEQ ID NO:1) was prepared by a PCR method using a 5′-Texas Red-labeled 20-base-pair primer, i.e., 5′-TexRed-[…]-3′ (pUC18 forward, 780-799; SEQ ID NO:2), and a 20-base-pair primer, i.e., 5′-[…]-3′ (pUC18 reverse, 1459-1478; SEQ ID NO:3), puc18 being used as a template. The DNA fragment was in a double-stranded state including a complementary strand (the following fragments were in the same state).
A 5′-Texas Red-labeled DNA fragment (450 bp) (pUC-II, SEQ ID NO:4) was prepared by a PCR method using a 5′-Texas Red-labeled 21-base-pair primer, i.e., 5′-TexRed-[…]-3′ (pUC18 reverse, 1861-1881; SEQ ID NO:5), and a 19-base-pair primer, i.e., 5-TGTAAAACGACGGCCAGTG-3′ (pUC18 forward, 328-345; SEQ ID NO:6), puc18 being used as a template.
(§2) Analysis by polyacrylamide gel electrophoresis was performed by the following process: A standard reaction solution containing the 5′-Texas Red-end-labeled DNA fragment (10 nM), DMF (10% (v/v)), and an agent having a concentration described above in a sodium phosphate buffer (5 mM, total volume: 10 μL, pH=7.0) was charged into a microfuge tube (Eppendorf) and left standing at 23° C. for 8 hours. After completion of the reaction, the reaction was quenched by the addition of calf thymus DNA (1 mM, 1 μL). The resulting mixture was shaken at 90° C. for 5 minutes. The DNA obtained by centrifugation under reduced pressure was dissolved by the addition of 8 μl, of loading dye (fushin red solution in DMF), shaken at 94° C. for 20 minutes, and then immediately cooled to 0° C. A 2-μL aliquot was separated electrophoretically on a 6% denaturing polyacrylamide gel using a Hitachi 5500-S DNA sequencer. The following tests were conducted in a similar way.
The reaction of compounds (3-2) and (3-3) prepared in the above-described Synthesis Examples with DNA was studied using the long-chain DNA (pUC-II; SEQ ID NO:4, pUC-I′; SEQ ID NO:1). An alkylation reaction was performed for 8 hours. The sequence alkylated was analyzed by polyacrylic gel electrophoresis for sequence determination. […] However, the difference in sequence recognition ability was observed. […] From the stand point of the sequence recognition ability, the molecular design of compound (3-2) was excellent.

[5] = test system: long-chain DNA (λ-F10906; SEQ ID NO:8); test: as above; type: biochemical; conditions: λ-F10906, nanomolar concentrations, FIG. 4
Method: A 5′-Texas Red-labeled DNA fragment (537 bp) (λ-F10906; SEQ ID NO:8) was prepared by a PCR method using a 5′-Texas Red-labeled 23-base-pair primer, i.e., 5′-TexRed-[…]-3′ (λ-DNA forward, 10960-10982; SEQ ID NO:9), and a 20-base-pair primer, i.e., 5′-[…]-3′ (λ-DNA reverse, 37007-37026; SEQ ID NO:10), λ-DNA being used as a template.
as §2
The reaction of compounds (3-2), (3-4), and (3-5) with DNA was studied using the long-chain DNA (λ-F10906; SEQ ID NO:8). The DNA-alkylating ability of each compound was evaluated.

[6] = test system: SH-SY-5Y (human neuroblast-derived cell); conditions: read-out: 50% cell growth inhibitory concentration (IC50), 48 hours, 0.1% DMF
Method: (§3) HCT-116 (human colon cancer-derived cell), HeLa (human cervical cancer-derived cell), HLC-2 (human lung cancer-derived cell), and SH-SY-5Y (human neuroblast-derived cell) were treated with AcImImPyPy-γ-ImPy-Indole-CBI (3-2) (10^−5 to 10^−8 M with 0.1% DMF) for 48 hours to evaluate the effect of the compound as an anticancer agent.
(§4) Evaluation of anticancer activity was made by the following process: HCT-116, HeLa, HLC-2, and SH-SY-5Y cell lines were seeded into a 96-well flat bottom plate in complete media [RPMI1640 (HCT-116, SH-SY-5Y; Sigma-Aldrich Co.) each containing 10% fetal bovine serum and Dulbecco's […] (HeLa, HLC-2, 293T, WI-38; Sigma-Aldrich Co.)] at cell densities of 4.0×10^3, 3.6×10^3, 1.6×10^3, 7.0×10^2, 5.0×10^2, and 8.0×10^2 cells/well and were precultured for 24 hours in a CO2 incubator. The media were replaced with complete media containing 0.1% DMF and 10^−5 to 10^−8 M AcImImPyPy-γ-ImPy-Indole-CBI (3-2). Incubation was performed for 48 hours in the CO2 incubator. Then, 10 μL/well of a Cell Counting Kit-8 (Dojindo Laboratories) was added. The specimens were left standing for 2 hours in the CO2 incubator. Absorbance was measured with a microplate reader MPR-A4I (Tosoh Corp.).

[7] = test system: HeLa (human cervical cancer-derived cell); conditions: read-out: 50% cell growth inhibitory concentration (IC50), 48 hours, 0.1% DMF
Method: as §3, §4

[8] = test system: cancerous cell lines versus normal cell lines; conditions: cancerous versus normal cell lines (293T, WI-38)
Method: as §3, §4

[9] = test system: HLC-2 (human lung cancer-derived cell); conditions: read-out: 50% cell growth inhibitory concentration (IC50); HLC-2, 48 hours, 0.1% DMF
Method: as §3, §4

[10] = test system: HCT-116 (human colon cancer-derived cell); conditions: read-out: 50% cell growth inhibitory concentration (IC50); HCT-116, 48 hours, 0.1% DMF
Method: as §3, §4

[11] = test system: 39 cultured human cancer cell lines; test: Anticancer activity screening on 39 cultured human cancer cell lines (Japanese Foundation for Cancer Research); conditions: mean of 39 cultured human cancer cell lines
From the text: Evaluation of the anticancer activity on the 39 cultured human cancer cell lines from breast cancer cell line to prostate cancer cell line was made by screening test performed in The Japanese Foundation for Cancer Research.

5′-YG(A/T)CR-3′ sequence = conditions: low concentration, dimer, both chains, sites 5 base pairs apart; cited from earlier work

CC(=O)Nc1cn(C)c(C(=O)Nc2cn(C)c(C(=O)Nc3cc(C(=O)Nc4cc(C(=O)NCCC(=O)Nc5cc(C(=O)Nc6cc(C(=O)NCCCC(=O)Nc7cn(C)c(C(=O)Nc8cc(C(=O)NCCC(=O)Nc9cn(C)c(C(=O)Nc%10cc(C(=O)Nc%11ccc%12[nH]c(C(=O)N%13CC%14CC%14%15C%13=CC(=O)c%13ccccc%13%15)cc%12c%11)n(C)c%10)n9)n(C)c8)n7)n(C)c6)n(C)c5)n(C)c4)n(C)c3)n2)n1 (stereo not shown) [compound (3-6), AcImImPyPyβPyPy-γ-ImPyβImPy-Indole-CBI]
alkylated sites (sequence recognition) [1]: alkylation (site 2) due to 1-bp-mismatch recognition was observed; also recorded: alkylation of AT-rich base sequences (sites 1 and 3) was also observed | efficiency of DNA alkylation [1]: efficiently alkylated 1,000-base-pair DNA at nanomolar concentrations

CC(=O)Nc1cn(C)c(C(=O)Nc2cn(C)c(C(=O)Nc3cc(C(=O)NCCC(=O)Nc4cn(C)c(C(=O)Nc5cc(C(=O)Nc6ccc7[nH]c(C(=O)N8CC9CC9%10C8=CC(=O)c8ccccc8%10)cc7c6)n(C)c5)n4)n(C)c3)n2)n1 (stereo not drawn) [compound (3-7), AcImImPy-β-ImPy-Indole-CBI]
alkylated sites in the presence of compound (6) ([2]; compound (6) 500 nM, heterodimer): alkylation (site 4) based on accurate 10-base-pair recognition was observed | alkylated sites, compound alone ([2]; nanomolar concentrations): efficient alkylation of sites 1 and 2 based on a hairpin mode of recognition and of site 3 based on a linear-chain mode of recognition

CC(=O)Nc1cn(C)c(C(=O)Nc2cn(C)c(C(=O)Nc3cn(C)c(C(=O)NCCCC(=O)Nc4cc(C(=O)Nc5cc(C(=O)Nc6ccc7[nH]c(C(=O)N8CC(CCl)c9c8cc(O)c8ccccc98)cc7c6)n(C)c5)n(C)c4)n3)n2)n1 (stereo not shown) [compound (4-3), AcImImIm-γ-PyPy-Indole-seco-CBI]
telomeric-sequence-specific alkylation [3]: Efficient telomeric-sequence-specific alkylation (5′-ACCCTA-3′) in a hairpin mode of recognition

AcImImPyPy-γ-ImPy-Indole-CBI [compound (3-2)]
alkylated sites (sequence recognition ability) [4]: alkylation in only site 3 (5′-TGACCA-3′) and site 6 (5′-AGTCCA-3′), which were match sequences, was observed | efficiency of DNA alkylation [4]: efficient DNA alkylation comparable with that of a known Py-Im polyamide having a vinyl linker was observed at nanomolar concentrations | sequence-specific DNA alkylation, alkylated sites [5]: Sequence-specific DNA alkylation (site 2 and 3: 5′-TGACCA-3′, site 4: 5′-AGACCA-3′, site 5: 5′-TGTCCA-3′) | IC50 [6]: 7.43 nM | IC50 [7]: 59.7 nM | anticancer activity against the cancerous cell lines relative to the normal cell lines [8]: about 10 times | IC50 [9]: 53.5 nM | IC50 [10]: 74.2 nM | mean log IC50 value of 39 cell lines ([11]; log value, FIG. 9): about −7 | IC50 ([11]; read-out: mean IC50 of 39 cell lines, printed in brackets after the log value): ~100 nM

ImPyLDu86
alkylation efficiency (5′-YG(A/T)CR-3′ sequence): 70%
